The assay addresses GCN2 kinase (Homo sapiens, UniProt Q9P2K8). Briefly: GCN2 enzyme inhibition assay (Transcreener ADP2 fluorescence polarization). The class given is biochemical. To be noted: Enzyme activity for compounds of Formula IV; Ki(app), 280 μM ATP, 25° C. The method, boiled down: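 Run at 25 °C in 25 mM Tris-HCl pH 7.5, 50 mM NaCl, 10 mM MgCl2, 1 mM DTT with 4 nM GCN2, 280 μM ATP and 200 μM (RS)7 peptide; compound (0–8 μM final) preincubated 10 min, reaction 1 h. ADP read by antibody/tracer FP; IC50 and Ki(app) from tight-binding fit.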
For orientation: Fluorescence polarisation rises when a labelled molecule tumbles more slowly, as on binding a larger partner.

Chain of GCN2 kinase (Q9P2K8 whole entry): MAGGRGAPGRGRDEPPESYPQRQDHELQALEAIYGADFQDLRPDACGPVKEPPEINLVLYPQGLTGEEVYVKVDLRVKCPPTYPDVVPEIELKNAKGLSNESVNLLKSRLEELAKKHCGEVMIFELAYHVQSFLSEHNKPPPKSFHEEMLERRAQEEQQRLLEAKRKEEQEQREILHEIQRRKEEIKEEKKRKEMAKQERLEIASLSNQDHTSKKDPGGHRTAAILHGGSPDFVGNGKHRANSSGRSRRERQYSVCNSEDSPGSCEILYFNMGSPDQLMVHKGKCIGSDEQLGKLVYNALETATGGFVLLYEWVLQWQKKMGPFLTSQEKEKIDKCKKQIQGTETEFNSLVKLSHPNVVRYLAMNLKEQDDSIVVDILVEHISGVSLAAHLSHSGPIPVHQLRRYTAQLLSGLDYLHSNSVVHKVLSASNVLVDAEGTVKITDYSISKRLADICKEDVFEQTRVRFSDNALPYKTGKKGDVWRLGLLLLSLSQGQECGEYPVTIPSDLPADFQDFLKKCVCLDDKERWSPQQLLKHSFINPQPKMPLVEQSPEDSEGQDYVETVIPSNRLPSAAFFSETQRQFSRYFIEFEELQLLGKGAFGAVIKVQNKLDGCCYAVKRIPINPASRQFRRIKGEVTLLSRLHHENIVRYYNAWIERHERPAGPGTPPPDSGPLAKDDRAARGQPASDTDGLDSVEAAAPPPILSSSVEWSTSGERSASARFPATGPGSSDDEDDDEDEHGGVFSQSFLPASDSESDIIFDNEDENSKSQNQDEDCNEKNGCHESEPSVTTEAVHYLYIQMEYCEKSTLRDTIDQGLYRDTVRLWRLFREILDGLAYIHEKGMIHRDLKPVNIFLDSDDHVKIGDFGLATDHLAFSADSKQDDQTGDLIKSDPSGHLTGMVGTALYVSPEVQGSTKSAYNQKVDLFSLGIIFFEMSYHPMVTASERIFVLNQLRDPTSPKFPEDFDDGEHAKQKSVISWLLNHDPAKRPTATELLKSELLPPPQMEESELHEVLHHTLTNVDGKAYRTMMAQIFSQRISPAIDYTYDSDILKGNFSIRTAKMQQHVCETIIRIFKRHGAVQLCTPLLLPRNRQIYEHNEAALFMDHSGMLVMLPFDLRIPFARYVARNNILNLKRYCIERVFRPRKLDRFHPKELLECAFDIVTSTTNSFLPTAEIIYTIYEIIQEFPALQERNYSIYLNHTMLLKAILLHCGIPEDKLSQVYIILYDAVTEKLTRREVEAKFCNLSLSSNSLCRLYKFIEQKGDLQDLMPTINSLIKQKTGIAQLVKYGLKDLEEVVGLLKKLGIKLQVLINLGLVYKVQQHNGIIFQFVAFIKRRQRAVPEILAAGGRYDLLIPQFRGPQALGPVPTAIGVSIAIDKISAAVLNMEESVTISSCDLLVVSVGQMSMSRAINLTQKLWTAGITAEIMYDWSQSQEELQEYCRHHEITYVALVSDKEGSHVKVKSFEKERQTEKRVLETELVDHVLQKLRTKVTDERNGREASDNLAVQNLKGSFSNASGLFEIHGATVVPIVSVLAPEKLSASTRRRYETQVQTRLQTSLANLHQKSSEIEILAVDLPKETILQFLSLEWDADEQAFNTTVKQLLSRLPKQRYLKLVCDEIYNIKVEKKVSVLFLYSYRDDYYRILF

Regarding `CC(C)(C)C1OCN2CCN(c3ccnc(-c4cnc5cnc(C(F)(F)F)cn45)n3)CC12` (stereo not drawn) [IV-506, 1-(tert-Butyl)-7-(2-(6-(trifluoromethyl)imidazo[1,2-a]pyrazin-3-yl)pyrimidin-4-yl)hexahydro-3H-oxazolo[3,4-a]pyrazine], the Ki was in the range of 0.1 to 1 µM.

`FC(F)(F)c1cn2c(-c3nccc(N4CCC(C5CCOCC5)C4)n3)cnc2cn1` (stereo not drawn) [IV-507, 3-(4-(3-(Tetrahydro-2H-pyran-4-yl)pyrrolidin-1-yl)pyrimidin-2-yl)-6-(trifluoromethyl)imidazo[1,2-a]pyrazine] returned a Ki of 0.1 to 1 µM.

`FC(F)(F)c1cn2c(-c3nccc(N4CCC(C5COC5)C4)n3)cnc2cn1` (stereo not drawn) [IV-508, 3-(4-(3-(Oxetan-3-yl)pyrrolidin-1-yl)pyrimidin-2-yl)-6-(trifluoromethyl)imidazo[1,2-a]pyrazine] yielded a Ki of 0.1 to 1 µM.

Take `COCC1CCCCN(c2ccnc(-c3cnc4cnc(C(F)(F)F)cn34)n2)C1` (stereo not drawn) [IV-509, 3-(4-(3-(Methoxymethyl)azepan-1-yl)pyrimidin-2-yl)-6-(trifluoromethyl)imidazo[1,2-a]pyrazine]: the Ki fell in the range of 0.1 to 1 µM.

`FC(F)(F)c1cn2c(-c3nccc(N4CCC(CN5CCOCC5)CC4)n3)cnc2cn1` [IV-510, 4-((1-(2-(6-(Trifluoromethyl)imidazo[1,2-a]pyrazin-3-yl)pyrimidin-4-yl)piperidin-4-yl)methyl)morpholine] yielded a Ki of 0.1 to 1 µM.

For the molecule `FC(F)(F)c1cn2c(-c3nccc(N4CCC5(CC4)COC5)n3)cnc2cn1` [IV-511, 7-(2-(6-(Trifluoromethyl)imidazo[1,2-a]pyrazin-3-yl)pyrimidin-4-yl)-2-oxa-7-azaspiro[3.5]nonane], the Ki is 0.1 to 1 µM.

For `COCC1CCN(c2ccnc(-c3cnc4cnc(C(F)(F)F)cn34)n2)CC1` [IV-512, 3-(4-(4-(Methoxymethyl)piperidin-1-yl)pyrimidin-2-yl)-6-(trifluoromethyl)imidazo[1,2-a]pyrazine], the Ki fell in the range of 0.1 to 1 µM.

As for `N#CC1CCN(c2ccnc(-c3cnc4cnc(C(F)(F)F)cn34)n2)CC1` [IV-513, 1-(2-(6-(Trifluoromethyl)imidazo[1,2-a]pyrazin-3-yl)pyrimidin-4-yl)piperidine-4-carbonitrile], the Ki was in the range of 0.1 to 1 µM.

Regarding `N#CCC1CCCN(c2ccnc(-c3cnc4cnc(C(F)(F)F)cn34)n2)C1` (stereo not drawn) [IV-514, 2-(1-(2-(6-(Trifluoromethyl)imidazo[1,2-a]pyrazin-3-yl)pyrimidin-4-yl)piperidin-3-yl)acetonitrile], the Ki was in the range of 0.1 to 1 µM.

Consider `O=C1NC[C@@H]2CCN(c3ccnc(-c4cnc5cnc(C(F)(F)F)cn45)n3)C[C@H]12` [IV-515, (3aR,7aR)-5-(2-(6-(Trifluoromethyl)imidazo[1,2-a]pyrazin-3-yl)pyrimidin-4-yl)octahydro-3H-pyrrolo[3,4-a]pyridin-3-one], for which the Ki lay within 0.1 to 1 µM.

In turn, `N#CC1CCCN(c2ccnc(-c3cnc4cnc(C(F)(F)F)cn34)n2)C1` (stereo not drawn) [IV-516, 1-(2-(6-(Trifluoromethyl)imidazo[1,2-a]pyrazin-3-yl)pyrimidin-4-yl)piperidine-3-carbonitrile] showed a Ki of 0.1 to 1 µM.

As for `CC1CCN(c2ccnc(-c3cnc4cnc(C(F)(F)F)cn34)n2)CC1` [IV-517, 3-(4-(4-Methylpiperidin-1-yl)pyrimidin-2-yl)-6-(trifluoromethyl)imidazo[1,2-a]pyrazine], the Ki lay within 0.1 to 1 µM.

Consider `CC1CCCCN1c1ccnc(-c2cnc3cnc(C(F)(F)F)cn23)n1` (stereo not drawn) [IV-518, 3-(4-(2-Methylpiperidin-1-yl)pyrimidin-2-yl)-6-(trifluoromethyl)imidazo[1,2-a]pyrazine], for which the Ki is 0.01 to 0.1 µM.

`CC1CCCN(c2ccnc(-c3cnc4cnc(C(F)(F)F)cn34)n2)C1C` (stereo not drawn) [IV-519, 3-(4-(2,3-Dimethylpiperidin-1-yl)pyrimidin-2-yl)-6-(trifluoromethyl)imidazo[1,2-a]pyrazine]: the Ki is 0.01 to 0.1 µM.

Turning to `CC(C)(O)C1CCN(c2ccnc(-c3cnc4cnc(C(F)(F)F)cn34)n2)C1` (stereo not drawn) [IV-520, 2-(1-(2-(6-(Trifluoromethyl)imidazo[1,2-a]pyrazin-3-yl)pyrimidin-4-yl)pyrrolidin-3-yl)propan-2-ol], the Ki is 0.1 to 1 µM.

Turning to `FC(F)(F)c1cn2c(-c3nccc(N4CCC5(CCOCC5)C4)n3)cnc2cn1` [IV-522, 2-(2-(6-(Trifluoromethyl)imidazo[1,2-a]pyrazin-3-yl)pyrimidin-4-yl)-8-oxa-2-azaspiro[4.5]decane], the Ki was in the range of 0.1 to 1 µM.

Molecule `FC(F)(F)c1cn2c(-c3nccc(N4CCCC5(COC5)C4)n3)cnc2cn1` [IV-523, 6-(2-(6-(Trifluoromethyl)imidazo[1,2-a]pyrazin-3-yl)pyrimidin-4-yl)-2-oxa-6-azaspiro[3.5]nonane] yielded a Ki of 0.1 to 1 µM.

Molecule `CC(=O)NCC1CCCN(c2ccnc(-c3cnc4cnc(C(F)(F)F)cn34)n2)C1` (stereo not drawn) [IV-526, N-((1-(2-(6-(Trifluoromethyl)imidazo[1,2-a]pyrazin-3-yl)pyrimidin-4-yl)piperidin-3-yl)methyl)acetamide] returned a Ki of 0.1 to 1 µM.

The molecule `NC(=O)NCC1CCCN(c2ccnc(-c3cnc4cnc(C(F)(F)F)cn34)n2)C1` (stereo not drawn) [IV-527, 1-((1-(2-(6-(Trifluoromethyl)imidazo[1,2-a]pyrazin-3-yl)pyrimidin-4-yl)piperidin-3-yl)methyl)urea] registered a Ki of 0.1 to 1 µM.

`CC(=O)NC1CCN(c2ccnc(-c3cnc4cnc(C(F)(F)F)cn34)n2)C1` (stereo not drawn) [IV-528, N-(1-(2-(6-(Trifluoromethyl)imidazo[1,2-a]pyrazin-3-yl)pyrimidin-4-yl)pyrrolidin-3-yl)acetamide]: the Ki was in the range of 0.1 to 1 µM.

`NC(=O)CC1CCCN(c2ccnc(-c3cnc4cnc(C(F)(F)F)cn34)n2)C1` (stereo not drawn) [IV-529, 2-(1-(2-(6-(Trifluoromethyl)imidazo[1,2-a]pyrazin-3-yl)pyrimidin-4-yl)piperidin-3-yl)acetamide]: the Ki lay within 0.1 to 1 µM.

In turn, `CC(=O)NC1CCCN(c2ccnc(-c3cnc4cnc(C(F)(F)F)cn34)n2)C1` (stereo not drawn) [IV-530, N-(1-(2-(6-(Trifluoromethyl)imidazo[1,2-a]pyrazin-3-yl)pyrimidin-4-yl)piperidin-3-yl)acetamide] had a Ki of 0.1 to 1 µM.

Molecule `CC1(C)CN(c2ccnc(-c3cnc4cnc(C(F)(F)F)cn34)n2)CCO1` [IV-531, 2,2-Dimethyl-4-(2-(6-(trifluoromethyl)imidazo[1,2-a]pyrazin-3-yl)pyrimidin-4-yl)morpholine] came in with a Ki of 0.1 to 1 µM.

In turn, `CC1(C)COCCN1c1ccnc(-c2cnc3cnc(C(F)(F)F)cn23)n1` [IV-532, 3,3-Dimethyl-4-(2-(6-(trifluoromethyl)imidazo[1,2-a]pyrazin-3-yl)pyrimidin-4-yl)morpholine] gave a Ki of 0.1 to 1 µM.

Regarding `O=C1NCCC12CCN(c1ccnc(-c3cnc4cnc(C(F)(F)F)cn34)n1)C2` (stereo not drawn) [IV-533, 7-(2-(6-(Trifluoromethyl)imidazo[1,2-a]pyrazin-3-yl)pyrimidin-4-yl)-2,7-diazaspiro[4.4]nonan-1-one], the Ki fell in the range of 0.1 to 1 µM.

`O=C1CC2(CCN(c3ccnc(-c4cnc5cnc(C(F)(F)F)cn45)n3)C2)CN1` (stereo not drawn) [IV-534, 7-(2-(6-(Trifluoromethyl)imidazo[1,2-a]pyrazin-3-yl)pyrimidin-4-yl)-2,7-diazaspiro[4.4]nonan-3-one] displayed a Ki of 0.1 to 1 µM.

For the molecule `NS(=O)(=O)C1CCCN(c2ccnc(-c3cnc4cnc(C(F)(F)F)cn34)n2)C1` (stereo not drawn) [IV-536, 1-(2-(6-(Trifluoromethyl)imidazo[1,2-a]pyrazin-3-yl)pyrimidin-4-yl)piperidine-3-sulfonamide], the Ki is 0.1 to 1 µM.

The values are drawn from patent US10988477B2 (Merck Patent GmbH, priority 2018, dated 2021).
